Where two headings read alike, the source gives them in different places.
Legend:
Assay type in all cases: cell-based
[1] = system: Staphylococcus aureus (ATCC 29213); test: Antimicrobial activity (MBC), S. aureus ATCC 29213
Method: (§1) To determine antimicrobial activity, Escherichia coli (ATCC 25922), Staphylococcus aureus (ATCC 29213), Pseudomonas aeruginosa (ATCC 27853), and Candida albicans (ATCC 10231) were used in primary screening. In addition, Escherichia coli (MCC 80392), Staphylococcus aureus (MCC 91731), Pseudomonas aeruginosa (MCC 4438), and Candida albicans (MCC 50319), provided by Alcon Laboratories, Fort Worth, Tex., were used. The microbial cultures were diluted in sterile saline pH 4 to prepare inocula. Test compounds were titrated by stepwise two-fold dilutions in sterile saline pH 4. A total of 1.0×10^5 to 1.0×10^6 Colony Forming Units (CFU)/mL microbe was added to each tube, mixed by gentle vortexing, and then incubated at room temperature for 1 h. Microbial plating on Petri dishes (Tryptic Soy agar or Saboraud's Dextrose agar) was performed immediately after the designated exposure after neutralization of the test article dilutions in Dey-Engley Broth. Plates were incubated at 37° C., and the numbers of microbes were counted by direct colony count to quantitate the surviving microbes as CFU/mL. Positive growth controls were made with sterile 0.9% saline. Compounds were dissolved in unbuffered isotonic saline (SAL) or phosphate buffered saline (PBS) at pH 4 or pH 7 (using HCl and/or NaOH as needed). All compounds were tested three times. The results are tabulated to show the comparison of antimicrobial effectiveness range of the compounds.
(§2) Data shown are the Minimum Bactericidal Concentration (MBC) or Minimum Fungicidal Concentration (MFC) (≧99.9% kill) in μg/mL.

[2] = system: Escherichia coli (ATCC 25922); test: Antimicrobial activity (MBC), E. coli ATCC 25922
Method: as §1, §2

[3] = system: mouse fibroblast cells (ATCC CCL-1, L929); test: Cytotoxicity, WST-8 colorimetric assay; details: 60 min exposure
Method: Cytotoxicity was assessed by a colorimetric assay system using the Dojindo™ cell counting kit containing 2-(2-methoxy-4-nitrophenyl)-3-(4-nitrophenyl)-5-(2,4-disulfophenyl)-2H-tetrazolium, monosodium salt (WST-8). In this assay, the WST-8 reagent was bioreduced by cellular dehydrogenases to a formazan product that is highly soluble in tissue culture medium.
In a standard assay, mouse fibroblast cells (ATCC CCL-1, L929), were cultured in Minimum Essential Medium, α-medium supplemented with 10% heat inactivated fetal bovine serum, L-glutamine, penicillin and streptomycin. Cells were trypsinized and counted under the microscope and seeded at 1.5×10^4 total cells per 100 μL per well of a flat-bottom 96-well plate in order to achieve ˜80% confluence after overnight incubation at 37° C. On the day of the assay, the tissue culture medium was removed and replaced with 30 μL of fresh medium.
Test articles were prepared as 2-fold serial dilutions and 170 μL of each dilution is added into each of 4-wells (total volume per well=200 μL). The test plate was then returned to the 37° C. incubator for 60 min. Immediately after the exposed time, test article from each well was replaced with 200 μL of fresh media. Plates were incubated at 37° C. for 18-20 hours. The following day growth medium was replaced with 100 μL/well of fresh medium containing 10 μL WST-8 reagent. Cells were incubated under growth conditions (5% CO2 at 37° C. humidified incubator), protected from light, until color development was achieved (usually 1-4 hours). Absorbance was read at 450 nm with reference wavelength at 750 nm using Molecular Device SpectraMax M5 plate reader. Untreated or vehicle only treated cells receiving WST-8 reagent served as positive cell proliferation controls.
The absorbance A450/750 from each well of untreated cells and from each well within the dilution series was measured. […] Next, a non-linear regression (curve fit) analysis was performed on all the absorbance data measured from the dilution series, including the absorbance data obtained from wells of the untreated control cells. For each dilution within the dilution series, an average A450/750 was calculated from the four replicate wells.

[4] = system: Candida albicans (ATCC 10231); test: Antimicrobial activity (MFC), C. albicans ATCC 10231; details: ATCC10231, C. albicans ATCC 10231, pH 4 (Sal), 1 h exposure at room temperature, read-out: Minimum Fungicidal Concentration (MFC) (≧99.9% kill)
Method: as §1, §2

[5] = ATCC29213, S. aureus ATCC 29213, pH 4 (Sal), 1 h exposure at room temperature, read-out: Minimum Bactericidal Concentration (MBC) (≧99.9% kill)
[6] = ATCC25922, E. coli ATCC 25922, pH 4 (Sal), 1 h exposure at room temperature, read-out: Minimum Bactericidal Concentration (MBC) (≧99.9% kill)
[7] = ATCC25922, E. coli ATCC 25922, pH 7 (PBS), 1 h exposure at room temperature, read-out: Minimum Bactericidal Concentration (MBC) (≧99.9% kill)

Structure (SMILES)	MBC [1, 5]	MBC [2, 6]	CT50 (concentration that results in survival of 50% of the cells) ([3]; pH 7 (PBS))	MFC [4]	CT50 (concentration that results in survival of 50% of the cells) ([3]; pH 4 (Sal))	CT50 (concentration that results in survival of 50% of the cells) ([3]; pH 4 (Acetate))	MBC [2, 7]	MBC ([1]; ATCC29213, 1 h, pH 4, read-out: Minimum Bactericidal Concentration (MBC) (≧99.9% kill))	MBC ([2]; ATCC25922, 1 h, pH 4, read-out: Minimum Bactericidal Concentration (MBC) (≧99.9% kill))
C[S+](C)CC(C)(C)N(Cl)Cl.[Cl-] [Compound 21-86, (2-(Dichloroamino)-2-methylpropyl)dimethylsulfonium chloride]	4 µg/mL	8 µg/mL	0.6 mM	128 µg/mL	–	–	–	–	–
CC(C)(CC[N+]1(C)CCCC1)N(Cl)Cl.[Cl-] [Compound 21-130, 1-(3-(Dichloroamino)-3-methylbutyl)-1-methylpyrrolidinium chloride]	2 µg/mL	4 µg/mL	–	32 µg/mL	–	–	–	–	–
CC(=O)N1CC[N+](C)(CC(C)(C)N(Cl)Cl)CC1.[Cl-] [Compound 21-110, 4-Acetyl-1-(2-(dichloroamino)-2-methylpropyl)-1-methylpiperazin-1-ium chloride]	16 µg/mL	64 µg/mL	–	> 1020 µg/mL	0.9 mM	–	–	–	–
CCCC[N+](C)(C)CCC(C)(C)N(Cl)Cl.[Cl-] [Compound 21-124, N-Butyl-3-(dichloroamino)-N,N,3-trimethylbutan-1-ammonium chloride]	2 µg/mL	8 µg/mL	–	64 µg/mL	–	1.0 mM	–	–	–
CC(C)(CCC[P+](C)(C)C)N(Cl)Cl.[Cl-] [Compound 21-106, (4-(Dichloroamino)-4-methylpentyl)trimethylphosphonium chloride]	2 µg/mL	4 µg/mL	–	> 256 µg/mL	–	–	–	–	–
CC(C)(CC[N+](C)(C)CCC[N+](C)(C)C)N(Cl)Cl.[Cl-].[Cl-] [Compound 21-128, N^1-(3-(Dichloroamino)-3-methylbutyl)-N^1,N^1,N^3,N^3,N^3-pentamethylpropane-1,3-diammonmium chloride]	4 µg/mL	16 µg/mL	–	128 µg/mL	–	1.3 mM	–	–	–
CC(C)(c1cn(CC[N+](C)(C)C)nn1)N(Cl)Cl.[Cl-] [Compound 21-92, 2-(4-(2-(Dichloroamino)propan-2-yl)-1H-1,2,3-triazol-1-yl)-N,N,N-trimethylethanaminium chloride]	4 µg/mL	8 µg/mL	–	32 µg/mL	–	–	–	–	–
CC[N+](C)(C)CCC(C)(C)N(Cl)Cl.[Cl-] [Compound 21-134, 3-(Dichloroamino)-N-ethyl-N,N,3-trimethylbutan-1-ammonium chloride]	–	–	–	–	–	1.4 mM	–	–	–
CC(C)(C[N+]1(C)CCCCC1)N(Cl)Cl.[Cl-] [Compound 21-78, 1-(2-(dichloroamino)-2-methylpropyl)-1-methylpiperidinium chloride]	8 µg/mL	16 µg/mL	–	64 µg/mL	–	–	–	–	–
CC(C)(CCS(=O)(=O)CC[N+](C)(C)C)N(Cl)Cl.[Cl-] [Compound 21-02, 2-(3-(Dichloroamino)-3-methylbutylsulfonyl)-N,N,N-trimethylethanammonium chloride]	2 µg/mL	8 µg/mL	–	32 µg/mL	<0.03 mM	–	–	–	–
CCCCCCCCCCCC[N+](C)(C)CCC(C)(C)N(Cl)Cl [Compound 21-138, N-(3-(Dichloroamino)-3-methylbutyl)-N,N-dimethyldodecan-1-ammonium chloride]	–	–	–	–	–	0.5 mM	–	–	–
CC(C)(CC[N+](C)(C)CC(F)(F)F)N(Cl)Cl.[Cl-] [Compound 21-132, 3-(Dichloroamino)-N,N,3-trimethyl-N-(2,2,2-trifluoroethyl)butan-1-ammonium chloride]	2 µg/mL	4 µg/mL	–	32 µg/mL	–	–	–	–	–
CC(C)(CC(=O)OCC[N+]1(C)CCCCC1)N(Cl)Cl.[Cl-] [Compound 21-93, 1-(2-(3-(Dichloroamino)-3-methylbutanoyloxy)ethyl)-1-methylpiperidinium chloride]	2 µg/mL	4 µg/mL	–	–	–	–	512 µg/mL	–	–
CN(CC[N+](C)(C)C)C(=O)CC(C)(C)N(Cl)Cl.[Cl-] [Compound 21-14, 2-(3-(Dichloroamino)-N,3-dimethylbutanamido)-N,N,N-trimethylethanaminium chloride]	2 µg/mL	16 µg/mL	–	32 µg/mL	–	–	256 µg/mL	–	–
CC(C)(CCS(=O)(=O)CCC[N+](C)(C)C)N(Cl)Cl.[Cl-] [Compound 21-112, S-3-(3-(Dichloroamino)-3-methylbutylsulfonyl)-N,N,N-trimethylpropan-1-ammonium chloride]	2 µg/mL	8 µg/mL	–	32 µg/mL	1.4 mM	–	–	–	–
CC(C)(CC[N+]12CCC(CC1)CC2)N(Cl)Cl [Compound 21-120, 1-(3-(Dichloroamino)-3-methylbutyl)-1-azoniabicyclo[2.2.2]octane methanesulfonate]	2 µg/mL	8 µg/mL	–	32 µg/mL	–	1.3 mM	–	–	–
CCCC[N+](C)(CCCC)CCC(C)(C)N(Cl)Cl [Compound 21-48, N,N-Dibutyl-3-(dichloroamino)-N-3-dimethylbutan-1-aminium chloride]	–	–	–	–	–	–	–	4 µg/mL	16 µg/mL
CC(C)(CC[N+]1(C)CCC(F)(F)CC1)N(Cl)Cl.[Cl-] [Compound 21-116, 1-(3-(Dichloroamino)-3-methylbutyl)-4,4-difluoro-1-methylpiperidinium chloride]	2 µg/mL	4 µg/mL	–	32 µg/mL	3.0 mM	–	–	–	–
CC(C)(CCC[N+](C)(C)C)N(Cl)Cl.[Cl-] [Compound 21-108]	2 µg/mL	8 µg/mL	–	256 µg/mL	–	–	–	–	–
CC(C)(CC[N+]1(C)CCCCCC1)N(Cl)Cl.[Cl-] [Compound 21-118, 1-(3-(Dichloroamino)-3-methylbutyl)-1-methylazepanium chloride]	4 µg/mL	4 µg/mL	–	16 µg/mL	0.9 mM	–	–	–	–
CC1(C)CC[N+](C)(CCC(C)(C)N(Cl)Cl)CC1.[Cl-] [Compound 21-122, 1-(3-(Dichloroamino)-3-methylbutyl)-1,4,4-trimethylpiperidinium chloride]	4 µg/mL	16 µg/mL	–	–	–	1.0 mM	–	–	–
CC(C)(CC[N+](C)(C)C1CCCCC1)N(Cl)Cl.[Cl-] [Compound 21-126, N-(3-(Dichloroamino)-3-methylbutyl)-N,N-dimethylcyclohexanammonium chloride]	4 µg/mL	16 µg/mL	–	> 1020 µg/mL	–	0.6 mM	–	–	–
CC(C)(C[N+](C)(C)CCS(=O)(=O)O)N(Cl)Cl.[Cl-] [Compound 21-90, 2-(Dichloroamino)-N,N-2-trimethyl-N-(2-sulfoethyl)propan-1-ammonium chloride]	16 µg/mL	64 µg/mL	–	128 µg/mL	–	–	–	–	–
